Measurements taken from US20230085307A1, “PYRIDAZINONE COMPOUND AND HERBICIDE” (NISSAN CHEMICAL CORPORATION, priority 2019, published 2023).

What was measured:
lambsquarters [1] = assay: Test Example 4: herbicidal effect by soil treatment (Table 19, symbol O); type: in vivo, lambsquarters (Chenopodium album); conditions: amount of applied herbicide 320 g/ha
How it was run: (§1)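 Herbicidal effect was rated 3 weeks after treatment, using the scoring criteria of an earlier test. The compound, formulated as an emulsion and diluted in water to a set herbicide amount, had been sprayed uniformly on soil over freshly sown seeds. Growth took place in a greenhouse at 25° C. to 30° C.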

redroot pigweed [2] = assay: Test Example 5: herbicidal effect by foliage application, plastic box (Table 20, symbol N); type: in vivo, redroot pigweed (Amaranthus retroflexus); conditions: foliage application, 320 g/ha, evaluated three weeks after application
How it was run: (§2)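 Foliar spray test: emulsion formulation diluted in water to a set application rate, sprayed onto 14-day-old plants raised in diluvial soil at 25° C to 30° C under glass. Both herbicidal effect and crop effect rated visually three weeks later.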

barnyard grass [3] = assay: Test Example 4: herbicidal effect by soil treatment (Table 19, symbol H); type: in vivo, barnyard grass (Echinochloa crus-galli); conditions: amount of applied herbicide 320 g/ha
How it was run: as §1

Italian ryegrass [4] = assay: Test Example 5: herbicidal effect by foliage application, plastic box (Table 20, symbol K); type: in vivo, Italian ryegrass (Lolium multiflorum); conditions: foliage application, 320 g/ha, evaluated three weeks after application
How it was run: as §2

wild oat [5] = assay: Test Example 5: herbicidal effect by foliage application, plastic box (Table 20, symbol I); type: in vivo, wild oat (Avena fatua); conditions: foliage application, 320 g/ha, evaluated three weeks after application
How it was run: as §2

blackgrass [6] = assay: Test Example 4: herbicidal effect by soil treatment (Table 19, symbol J); type: in vivo, blackgrass (Alopecurus myosuroides); conditions: amount of applied herbicide 320 g/ha
How it was run: as §1

velvetleaf [7] = assay: Test Example 4: herbicidal effect by soil treatment (Table 19, symbol M); type: in vivo, velvetleaf (Abutilon theophrasti); conditions: amount of applied herbicide 320 g/ha
How it was run: as §1

late watergrass = assay: Test Example 1: herbicidal activity, application before weed generation under submerged conditions (Table 16, symbol A); type: in vivo, late watergrass (Echinochloa oryzicola); conditions: 320 g/ha applied herbicide
How it was run: (§3)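 Submerged Wagner pots (alluvial soil, 4 cm water) sown with weed seeds and planted with 2.5-leaf rice seedlings; emulsifiable concentrate diluted in water applied to water surface on sowing day. Held in greenhouse at 25-30 °C; injury scored 0-5 by herbicidal rate after three weeks.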

velvetleaf [8] = assay: Test Example 5: herbicidal effect by foliage application, plastic box (Table 20, symbol M); type: in vivo, velvetleaf (Abutilon theophrasti); conditions: foliage application, 320 g/ha, evaluated three weeks after application
How it was run: as §2

rice flat sedge = assay: Test Example 3: herbicidal effect by foliage application, Wagner pot (Table 18, symbol E); type: in vivo, rice flat sedge (Cyperus iria); conditions: amount of applied herbicide 320 g/ha
How it was run: (§4)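 Plants were sown in alluvial soil held under 0.1–0.5 cm standing water and grown 14 days in a greenhouse at 25–30 °C. An emulsifiable formulation, water-diluted to the set dose, was then sprayed onto the foliage, and effects were scored three weeks later using previously defined criteria.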

Japanese bulrush = assay: Test Example 1: herbicidal activity, application before weed generation under submerged conditions (Table 16, symbol B); type: in vivo, Japanese bulrush (Schoenoplectus juncoides); conditions: 320 g/ha applied herbicide
How it was run: as §3

blackgrass [9] = assay: Test Example 5: herbicidal effect by foliage application, plastic box (Table 20, symbol J); type: in vivo, blackgrass (Alopecurus myosuroides); conditions: foliage application, 320 g/ha, evaluated three weeks after application
How it was run: as §2

redroot pigweed [10] = assay: Test Example 4: herbicidal effect by soil treatment (Table 19, symbol N); type: in vivo, redroot pigweed (Amaranthus retroflexus); conditions: amount of applied herbicide 320 g/ha
How it was run: as §1

southern crabgrass [11] = assay: Test Example 5: herbicidal effect by foliage application, plastic box (Table 20, symbol F); type: in vivo, southern crabgrass (Digitaria ciliaris); conditions: foliage application, 320 g/ha, evaluated three weeks after application
How it was run: as §2

Italian ryegrass [12] = assay: Test Example 4: herbicidal effect by soil treatment (Table 19, symbol K); type: in vivo, Italian ryegrass (Lolium multiflorum); conditions: amount of applied herbicide 320 g/ha
How it was run: as §1

green foxtail [13] = assay: Test Example 4: herbicidal effect by soil treatment (Table 19, symbol G); type: in vivo, green foxtail (Setaria viridis); conditions: amount of applied herbicide 320 g/ha
How it was run: as §1

lambsquarters [14] = assay: Test Example 5: herbicidal effect by foliage application, plastic box (Table 20, symbol O); type: in vivo, lambsquarters (Chenopodium album); conditions: foliage application, 320 g/ha, evaluated three weeks after application
How it was run: as §2

green foxtail [15] = assay: Test Example 5: herbicidal effect by foliage application, plastic box (Table 20, symbol G); type: in vivo, green foxtail (Setaria viridis); conditions: foliage application, 320 g/ha, evaluated three weeks after application
How it was run: as §2

barnyard grass [16] = assay: Test Example 3: herbicidal effect by foliage application, Wagner pot (Table 18, symbol H); type: in vivo, barnyard grass (Echinochloa crus-galli); conditions: amount of applied herbicide 320 g/ha
How it was run: as §4

wild oat [17] = assay: Test Example 4: herbicidal effect by soil treatment (Table 19, symbol I); type: in vivo, wild oat (Avena fatua); conditions: amount of applied herbicide 320 g/ha
How it was run: as §1

Chinese sprangletop = assay: Test Example 3: herbicidal effect by foliage application, Wagner pot (Table 18, symbol D); type: in vivo, chinese sprangletop (Leptochloa chinensis); conditions: amount of applied herbicide 320 g/ha
How it was run: as §4

chickweed [18] = assay: Test Example 4: herbicidal effect by soil treatment (Table 19, symbol P); type: in vivo, common chickweed (Stellaria media); conditions: amount of applied herbicide 320 g/ha
How it was run: as §1

barnyard grass [19] = assay: Test Example 5: herbicidal effect by foliage application, plastic box (Table 20, symbol H); type: in vivo, barnyard grass (Echinochloa crus-galli); conditions: foliage application, 320 g/ha, evaluated three weeks after application
How it was run: as §2

persian speedwell [20] = assay: Test Example 4: herbicidal effect by soil treatment (Table 19, symbol R); type: in vivo, Persian speedwell (Veronica persica); conditions: amount of applied herbicide 320 g/ha
How it was run: as §1

southern crabgrass [21] = assay: Test Example 4: herbicidal effect by soil treatment (Table 19, symbol F); type: in vivo, southern crabgrass (Digitaria ciliaris); conditions: amount of applied herbicide 320 g/ha
How it was run: as §1

windgrass [22] = assay: Test Example 4: herbicidal effect by soil treatment (Table 19, symbol L); type: in vivo, windgrass (Apera spica-venti); conditions: amount of applied herbicide 320 g/ha
How it was run: as §1

false cleavers [23] = assay: Test Example 5: herbicidal effect by foliage application, plastic box (Table 20, symbol Q); type: in vivo, false cleavers (Galium spurium); conditions: foliage application, 320 g/ha, evaluated three weeks after application
How it was run: as §2

persian speedwell [24] = assay: Test Example 5: herbicidal effect by foliage application, plastic box (Table 20, symbol R); type: in vivo, Persian speedwell (Veronica persica); conditions: foliage application, 320 g/ha, evaluated three weeks after application
How it was run: as §2

false cleavers [25] = assay: Test Example 4: herbicidal effect by soil treatment (Table 19, symbol Q); type: in vivo, false cleavers (Galium spurium); conditions: amount of applied herbicide 320 g/ha
How it was run: as §1

chickweed [26] = assay: Test Example 5: herbicidal effect by foliage application, plastic box (Table 20, symbol P); type: in vivo, common chickweed (Stellaria media); conditions: foliage application, 320 g/ha, evaluated three weeks after application
How it was run: as §2

windgrass [27] = assay: Test Example 5: herbicidal effect by foliage application, plastic box (Table 20, symbol L); type: in vivo, windgrass (Apera spica-venti); conditions: foliage application, 320 g/ha, evaluated three weeks after application
How it was run: as §2

oval-leafed pondweed = assay: Test Example 1: herbicidal activity, application before weed generation under submerged conditions (Table 16, symbol C); type: in vivo, oval-leafed pondweed (Monochoria vaginalis); conditions: 320 g/ha applied herbicide
How it was run: as §3

## COc1ccc2sc(-c3ccccc3)c(-c3c(O)c(C)nn(C)c3=O)c2c1 [2-164]
Lambsquarters [1]
  O: lambsquarters, herbicidal effect rating: 4 (Herbicidal rate of 70% or more and less than 90%)
Redroot pigweed [2]
  herbicidal effect on N: redroot pigweed (criteria 0-5): 5 (Herbicidal rate of 90% or more (almost completely withered))
Barnyard grass [3]
  H: barnyard grass, herbicidal effect rating: 2 (Herbicidal rate of 20% or more and less than 40%)
Italian ryegrass [4]
  herbicidal effect on K: Italian ryegrass (criteria 0-5): 4 (Herbicidal rate of 70% or more and less than 90%)
Wild oat [5]
  herbicidal effect on I: wild oat (criteria 0-5): 4 (Herbicidal rate of 70% or more and less than 90%)
Blackgrass [6]
  J: blackgrass, herbicidal effect rating: 0 (Herbicidal rate of 5% or less (almost no effect))
Velvetleaf [7]
  M: velvetleaf, herbicidal effect rating: 0 (Herbicidal rate of 5% or less (almost no effect))
Late watergrass
  Herbicidal effect on A: late watergrass (grade 0-5): 3 (Herbicidal rate of 40% or more and less than 70%)
Velvetleaf [8]
  herbicidal effect on M: velvetleaf (criteria 0-5): 3 (Herbicidal rate of 40% or more and less than 70%)
Rice flat sedge
  herbicidal effect on E: rice flat sedge: 4 (Herbicidal rate of 70% or more and less than 90%)
Japanese bulrush
  Herbicidal effect on B: Japanese bulrush (grade 0-5): 0 (Herbicidal rate of 5% or less (almost no effect))
Blackgrass [9]
  herbicidal effect on J: blackgrass (criteria 0-5): 3 (Herbicidal rate of 40% or more and less than 70%)
Redroot pigweed [10]
  N: redroot pigweed, herbicidal effect rating: 4 (Herbicidal rate of 70% or more and less than 90%)
Southern crabgrass [11]
  herbicidal effect on F: southern crabgrass (criteria 0-5): 4 (Herbicidal rate of 70% or more and less than 90%)
Italian ryegrass [12]
  K: Italian ryegrass, herbicidal effect rating: 2 (Herbicidal rate of 20% or more and less than 40%)
Green foxtail [13]
  G: green foxtail, herbicidal effect rating: 5 (Herbicidal rate of 90% or more (almost completely withered))
Lambsquarters [14]
  herbicidal effect on O: lambsquarters (criteria 0-5): 3 (Herbicidal rate of 40% or more and less than 70%)
Green foxtail [15]
  herbicidal effect on G: green foxtail (criteria 0-5): 5 (Herbicidal rate of 90% or more (almost completely withered))
Barnyard grass [16]
  herbicidal effect on H: barnyard grass: 2 (Herbicidal rate of 20% or more and less than 40%)
Wild oat [17]
  I: wild oat, herbicidal effect rating: 1 (Herbicidal rate of 5% or more and less than 20%)
Chinese sprangletop
  herbicidal effect on D: Chinese sprangletop: 3 (Herbicidal rate of 40% or more and less than 70%)
Chickweed [18]
  P: chickweed, herbicidal effect rating: 5 (Herbicidal rate of 90% or more (almost completely withered))
Barnyard grass [19]
  herbicidal effect on H: barnyard grass (criteria 0-5): 1 (Herbicidal rate of 5% or more and less than 20%)
Persian speedwell [20]
  R: persian speedwell, herbicidal effect rating: 4 (Herbicidal rate of 70% or more and less than 90%)
Southern crabgrass [21]
  F: southern crabgrass, herbicidal effect rating: 4 (Herbicidal rate of 70% or more and less than 90%)
Windgrass [22]
  L: windgrass, herbicidal effect rating: 3 (Herbicidal rate of 40% or more and less than 70%)
False cleavers [23]
  herbicidal effect on Q: false cleavers (criteria 0-5): 5 (Herbicidal rate of 90% or more (almost completely withered))
Persian speedwell [24]
  herbicidal effect on R: persian speedwell (criteria 0-5): 5 (Herbicidal rate of 90% or more (almost completely withered))
False cleavers [25]
  Q: false cleavers, herbicidal effect rating: 2 (Herbicidal rate of 20% or more and less than 40%)
Chickweed [26]
  herbicidal effect on P: chickweed (criteria 0-5): 5 (Herbicidal rate of 90% or more (almost completely withered))
Windgrass [27]
  herbicidal effect on L: windgrass (criteria 0-5): 5 (Herbicidal rate of 90% or more (almost completely withered))
oval-leafed pondweed
  Herbicidal effect on C: oval-leafed pondweed (grade 0-5): 0 (Herbicidal rate of 5% or less (almost no effect))
